Laboratory results from ChEMBL document CHEMBL1201862, “PubChem BioAssay data set” (2004).
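Results reflect a 48-hour exposure of cells in 96-well plates to compound at five concentrations. Abbreviation: GI50, concentration required for 50% inhibition of growth.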 The source made the active and inactive calls. Rule as the data show it: active = GI50 up to about 1.1 µM and inactive = higher.

Columns and labels:
Assay in all cases: NCI tumour cell line growth inhibition, 48 h
TK-10 = system: TK-10
SK-MEL-5 = system: SK-MEL-5
SF-295 = system: SF-295
OVCAR-5 = system: OVCAR-5
SK-MEL-28 = system: SK-MEL-28
OVCAR-4 = system: OVCAR-4
EKVX = system: EKVX
UACC-62 = system: UACC-62
786-0 = system: 786-0
A498 = system: A498
SR = system: SR
KM12 = system: KM12
SF-539 = system: SF-539
OVCAR-8 = system: OVCAR-8
UACC-257 = system: UACC-257
RXF 393 = system: RXF 393
HCT-116 = system: HCT-116

Measured: GI50

COc1ccc(OC)c(NC(=O)CCC/C(CC(=O)c2ccc(O)c(OC)c2)=N\Nc2nnc(C)n2N)c1
inactive: TK-10 > 100 µM | SK-MEL-5 > 100 µM | SF-295 > 100 µM | OVCAR-5 > 100 µM | SK-MEL-28 > 100 µM | OVCAR-4 > 100 µM | EKVX > 100 µM | UACC-62 > 100 µM | 786-0 > 100 µM | A498 > 100 µM | SR > 100 µM | KM12 > 100 µM | SF-539 > 100 µM | OVCAR-8 > 100 µM | UACC-257 > 100 µM

O=S(=O)(C1=CC(S(=O)(=O)c2ccccc2)COC1)c1ccccc1 (stereo not drawn)
inactive: TK-10 > 100 µM | SF-295 > 100 µM | SK-MEL-28 > 100 µM | OVCAR-4 > 100 µM | EKVX > 100 µM | UACC-62 > 100 µM | 786-0 > 100 µM | SR > 100 µM | KM12 > 100 µM | SF-539 > 100 µM | OVCAR-8 > 100 µM | RXF 393 > 100 µM | UACC-257 > 100 µM | HCT-116 > 100 µM

CC(C)C12Cc3c(ccc4ccccc34)OC1(C)Oc1ccc3ccccc3c1C2 (stereo not drawn)
inactive: TK-10 > 100 µM | SK-MEL-5 > 100 µM | SF-295 > 100 µM | OVCAR-5 > 100 µM | OVCAR-4 > 100 µM | EKVX 10.6 µM | UACC-62 > 100 µM | 786-0 > 100 µM | SR > 100 µM | KM12 > 100 µM | SF-539 > 100 µM | OVCAR-8 > 100 µM | RXF 393 > 100 µM | HCT-116 > 100 µM

CC(=O)OC1=C2CC[C@@H]3C(CC[C@@]4(C)C3CC[C@@H]4OC(C)=O)[C@@]2(C)CC(C#N)C1=O (stereo partly drawn)
inactive: TK-10 23.6 µM | SK-MEL-5 20.2 µM | SF-295 32.8 µM | OVCAR-5 26.4 µM | SK-MEL-28 30.3 µM | OVCAR-4 24.4 µM | EKVX 33 µM | UACC-62 12.8 µM | 786-0 10.8 µM | A498 6.01 µM | KM12 30.3 µM | SF-539 30.3 µM | OVCAR-8 30.9 µM | RXF 393 23.4 µM | UACC-257 29.3 µM | HCT-116 27.6 µM

COc1ccc2c3c(c(C(=O)O)oc13)C(CCC(=O)O)CC2 (stereo not drawn)
inactive: TK-10 > 100 µM | SK-MEL-5 > 100 µM | SF-295 > 100 µM | SK-MEL-28 > 100 µM | OVCAR-4 > 100 µM | EKVX > 100 µM | UACC-62 > 100 µM | 786-0 > 100 µM | A498 > 100 µM | SF-539 > 100 µM | OVCAR-8 > 100 µM | RXF 393 > 100 µM | UACC-257 > 100 µM | HCT-116 > 100 µM

COc1ccc(NC(=O)CC(=O)NN2C(=O)/C(=C/c3ccc(N(CCC#N)CCC#N)cc3C)N=C2/C=C\c2ccccc2)cc1
inactive: TK-10 > 100 µM | SK-MEL-5 > 100 µM | SF-295 > 100 µM | OVCAR-5 > 100 µM | SK-MEL-28 > 100 µM | OVCAR-4 > 100 µM | UACC-62 > 100 µM | 786-0 > 100 µM | A498 > 100 µM | SR > 100 µM | KM12 > 100 µM | SF-539 > 100 µM | OVCAR-8 > 100 µM | UACC-257 > 100 µM | HCT-116 > 100 µM

CCCCCCCCCCCCCC(=O)OC1CC(=O)OC1CO (stereo not drawn)
inactive: TK-10 > 100 µM | SK-MEL-5 91.8 µM | SF-295 21.5 µM | OVCAR-5 > 100 µM | OVCAR-4 > 100 µM | EKVX > 100 µM | UACC-62 19.2 µM | 786-0 > 100 µM | A498 77.6 µM | KM12 22.9 µM | SF-539 > 100 µM | OVCAR-8 > 100 µM | RXF 393 > 100 µM | UACC-257 > 100 µM | HCT-116 27.4 µM

Cc1cc(N(CCC#N)CCC#N)ccc1/N=N/c1ccccc1[N+](=O)[O-]
inactive: TK-10 > 100 µM | SK-MEL-5 > 100 µM | SF-295 > 100 µM | OVCAR-5 > 100 µM | SK-MEL-28 > 100 µM | OVCAR-4 > 100 µM | EKVX > 100 µM | UACC-62 > 100 µM | 786-0 > 100 µM | A498 > 100 µM | KM12 > 100 µM | SF-539 > 100 µM | OVCAR-8 > 100 µM | RXF 393 > 100 µM | UACC-257 > 100 µM

CCOC(=O)C(=O)Nc1cc(Cl)c(Cl)cc1Cl
inactive: TK-10 > 100 µM | SK-MEL-5 > 100 µM | SF-295 > 100 µM | OVCAR-5 > 100 µM | SK-MEL-28 > 100 µM | OVCAR-4 > 100 µM | EKVX > 100 µM | UACC-62 > 100 µM | 786-0 > 100 µM | KM12 > 100 µM | SF-539 > 100 µM | OVCAR-8 > 100 µM | RXF 393 > 100 µM | UACC-257 > 100 µM | HCT-116 > 100 µM
